Assay results published in ChEMBL document CHEMBL1201862, “PubChem BioAssay data set” (2004).
Activity calls are given as the source filed them.

Columns and labels:
[1] = biological target: FAD-linked sulfhydryl oxidase ALR (Homo sapiens, UniProt P55789); test: inhibitors of human ALR sulfhydryl oxidase, dose response, biochemical, H2O2 detection, luminescence, cherry-pick (AID 493248)
cells [2] = format: functional, cell-based
cells [3] = format: functional, cell-based; remark: listed apart in the source
[4] = biological target: T1, Polyadenylate-binding protein 1 (Homo sapiens, UniProt P11940); test: PABP1 MLLE–PAM2 interaction inhibitors, dose response, miRNA deadenylation inhibitor project, biochemical, fluorescence polarization, Cy5-PAM2 peptide, secondary (AID 602260); format: functional; conditions: read-out: IC50_Mean
[5] = biological target: T1, Polyadenylate-binding protein 1; test: PABP1 MLLE–PAM2 binding inhibitor potency, dose response, biochemical, fluorescence polarization, FITC-PAM2 peptide (AID 602259); format: functional; conditions: read-out: IC50_Mean
[6] = NIH-3T3 fibroblast cytotoxicity, dose response, cytotoxicity control, cell-based, fluorescence, Alamar Blue, secondary assay (AID 2327); format: functional;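 further: NIH-3T3 mouse fibroblasts cultured with fluconazole at 8 µg/mL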
[7] = C. albicans growth with fluconazole, confirmation, fluorescence, retest (AID 2467); format: functional, cell-based
[8] = inhibitors of firefly luciferase expression or activity, dose response, H4 neuroglioma cells, luminescence (AID 1990); format: functional, cell-based
[9] = Luminescence Cell-Based Dose Response HTS to Identify Inhibitors of 5'UTR Stem-Loop Driven Prion Protein mRNA Translation in H4 Neuroglioblastoma Cells. [Related pubchem assays: 1827 (Project Summary), 1813 (Primary HTS)]; format: functional
[10] = inhibitors of SNCA 5'UTR-driven reporter translation, confirmation, H4 neuroglioma cells, luminescence (AID 1988); format: functional, cell-based
P388/ADR = test: cells; format: functional; conditions: Mus musculus
SN12K1 = test: cells; format: functional; conditions: Homo sapiens
[11] = cytotoxicity in HEK-293T cells, dose response, cytotoxicity control for TCR NF-kB inhibitor project, luminescence, T-cell screen hits (AID 489026); format: functional, cell-based;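 further: cells exposed to compound about 14 hours before the viability readout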
[12] = inhibitors of HIV Env-driven cell fusion, dose response, cherry-pick (AID 652057); format: functional, cell-based
[13] = inhibitors of clade B AD8 Env fusion, dose response, cell-based, cherry-pick (AID 652062); format: functional;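 further: luciferase signal from cell-cell fusion driven by HIV-1 clade B AD8 Env; potency is for inhibitors of fusion seen as a drop in luminescence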
[14] = biological target: T2, Heat shock factor protein 1 (Mus musculus, UniProt P38532); test: inhibition of MG132-induced HSE-luciferase signal, confirmation, cell-based, NIH3T3, luminescence, dose retest (AID 2382); format: functional;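 further: NIH3T3 fibroblasts with HSF1-driven luciferase reporter stressed by proteasome inhibitor MG132; luminescence from HSF1-driven luciferase expression after 8 hours of MG132 stress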
T2 sequence (P38532 whole entry): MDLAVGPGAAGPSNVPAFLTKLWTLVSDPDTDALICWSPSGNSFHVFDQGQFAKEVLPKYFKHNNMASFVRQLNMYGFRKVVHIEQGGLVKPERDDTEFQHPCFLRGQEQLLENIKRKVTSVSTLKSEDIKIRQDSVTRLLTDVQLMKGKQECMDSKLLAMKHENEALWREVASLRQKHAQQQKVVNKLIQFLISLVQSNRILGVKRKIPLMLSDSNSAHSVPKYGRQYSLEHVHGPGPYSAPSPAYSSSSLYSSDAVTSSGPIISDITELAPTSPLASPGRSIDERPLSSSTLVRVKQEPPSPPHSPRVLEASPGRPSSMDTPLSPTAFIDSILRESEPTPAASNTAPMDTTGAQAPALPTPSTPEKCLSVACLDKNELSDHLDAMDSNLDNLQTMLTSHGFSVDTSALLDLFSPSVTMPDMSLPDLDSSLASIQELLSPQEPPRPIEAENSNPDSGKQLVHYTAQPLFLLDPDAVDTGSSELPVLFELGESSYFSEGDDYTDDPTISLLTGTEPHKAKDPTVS

[15] = biological target: T3, Microphthalmia-associated transcription factor (Homo sapiens, UniProt O75030); test: TRPM1 promoter luciferase signal decrease, dose response, MITF inhibitor project, cell-based, SK-MEL-5, cherry-picked, set 3 (AID 493073); format: functional
T3 sequence (O75030 whole entry): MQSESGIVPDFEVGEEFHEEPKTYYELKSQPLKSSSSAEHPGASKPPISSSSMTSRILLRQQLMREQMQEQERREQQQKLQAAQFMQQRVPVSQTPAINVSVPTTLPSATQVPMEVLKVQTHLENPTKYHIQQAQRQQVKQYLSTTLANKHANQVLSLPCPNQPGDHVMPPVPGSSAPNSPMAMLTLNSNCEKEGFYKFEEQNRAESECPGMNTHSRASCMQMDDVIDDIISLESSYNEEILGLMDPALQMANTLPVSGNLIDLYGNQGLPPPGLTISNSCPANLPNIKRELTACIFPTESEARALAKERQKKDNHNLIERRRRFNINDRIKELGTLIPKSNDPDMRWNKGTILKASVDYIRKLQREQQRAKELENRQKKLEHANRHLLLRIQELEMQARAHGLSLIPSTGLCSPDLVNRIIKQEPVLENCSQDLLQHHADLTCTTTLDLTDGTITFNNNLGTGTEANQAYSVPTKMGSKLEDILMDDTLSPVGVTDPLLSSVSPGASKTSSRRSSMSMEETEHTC

INS1 = test: beta cell apoptosis inhibitors, cytokine rescue, dose response, luminescence, retest (AID 449756); format: functional, cell-based; conditions: Rattus norvegicus;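 further: cell death triggered by IL-1 beta plus TNF-alpha plus IFN-gamma mixture; protective hits raise ATP signal compared with cytokine alone wells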
[16] = biological target: T4, RNA-binding protein pos-1 (Caenorhabditis elegans, UniProt G5EF15); test: inhibitors of POS-1/mex-3 RNA binding, dose response, biochemical, fluorescence polarization (AID 1964);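 further: purified POS-1 fused to maltose binding protein made in E. coli; potency of compounds blocking POS-1 binding to fluorescent RNA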
T4 sequence (G5EF15 whole entry): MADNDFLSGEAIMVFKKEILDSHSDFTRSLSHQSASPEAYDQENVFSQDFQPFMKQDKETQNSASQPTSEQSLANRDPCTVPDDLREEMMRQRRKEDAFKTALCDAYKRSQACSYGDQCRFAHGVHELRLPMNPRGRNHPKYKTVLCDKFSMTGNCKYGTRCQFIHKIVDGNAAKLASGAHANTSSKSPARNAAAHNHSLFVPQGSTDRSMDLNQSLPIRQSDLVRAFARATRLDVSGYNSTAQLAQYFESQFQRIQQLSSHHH

[17] = biological target: T5, Zinc finger protein mex-5 (Caenorhabditis elegans, UniProt Q9XUB2); test: MEX-5/TCR-2 RNA interaction inhibitors, dose response, biochemical, C. elegans, fluorescence polarization (AID 1960)
T5 sequence (Q9XUB2 whole entry): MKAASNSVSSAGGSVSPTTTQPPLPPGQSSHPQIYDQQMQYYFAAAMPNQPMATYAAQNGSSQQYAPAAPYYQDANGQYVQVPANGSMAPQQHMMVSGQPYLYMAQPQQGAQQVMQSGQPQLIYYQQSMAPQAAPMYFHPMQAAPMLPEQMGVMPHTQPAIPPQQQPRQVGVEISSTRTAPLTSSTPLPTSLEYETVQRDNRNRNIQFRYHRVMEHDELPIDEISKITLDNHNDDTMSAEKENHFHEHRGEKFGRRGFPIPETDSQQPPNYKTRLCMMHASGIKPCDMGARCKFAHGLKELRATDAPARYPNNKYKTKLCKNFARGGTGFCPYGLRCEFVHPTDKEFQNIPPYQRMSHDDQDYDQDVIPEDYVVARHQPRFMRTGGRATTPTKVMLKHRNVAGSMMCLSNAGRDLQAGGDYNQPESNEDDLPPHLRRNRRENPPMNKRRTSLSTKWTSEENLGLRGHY

[18] = biological target: T6, Carboxy-terminal domain RNA polymerase II polypeptide A small phosphatase 1 (Homo sapiens, UniProt Q9GZU7); test: inhibitors of CTDSP1, concentration-response testing, biochemical assay, absorbance-based, actives from ultra-high-throughput screening (AID 540297); format: functional
T6 sequence (Q9GZU7 whole entry): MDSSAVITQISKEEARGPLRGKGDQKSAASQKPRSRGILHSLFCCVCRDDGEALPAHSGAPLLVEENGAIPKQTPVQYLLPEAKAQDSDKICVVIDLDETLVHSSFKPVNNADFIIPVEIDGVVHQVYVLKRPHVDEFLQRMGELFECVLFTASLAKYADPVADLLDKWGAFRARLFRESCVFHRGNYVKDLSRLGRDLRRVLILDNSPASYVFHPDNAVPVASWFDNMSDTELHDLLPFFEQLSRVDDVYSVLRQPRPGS

[19] = HEp-2 cell cytotoxicity, dose response, cytotoxicity control for RSV inhibitor project, HTS (AID 2410); format: functional; conditions: human respiratory syncytial virus
H9c2 = test: cells; format: functional, cell-based; conditions: Rattus norvegicus, H9c2, Myocardium;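 further: confirmatory concentration-response retest of ultra-high-throughput screening hits for modulation of myocardial damage; cell death induced by hydrogen peroxide oxidative stress; compound pretreatment for 60 min then peroxide exposure for 2 h; potency is for protecting the cells against peroxide damage rather than for killing them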

Sequence of FAD-linked sulfhydryl oxidase ALR (P55789 whole entry): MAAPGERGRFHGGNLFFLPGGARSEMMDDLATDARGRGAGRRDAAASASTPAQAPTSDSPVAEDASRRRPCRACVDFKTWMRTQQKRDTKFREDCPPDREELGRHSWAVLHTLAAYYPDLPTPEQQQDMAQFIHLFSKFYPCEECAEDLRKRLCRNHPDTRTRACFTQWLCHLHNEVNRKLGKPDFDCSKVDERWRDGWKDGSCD
T1 sequence (P11940 whole entry): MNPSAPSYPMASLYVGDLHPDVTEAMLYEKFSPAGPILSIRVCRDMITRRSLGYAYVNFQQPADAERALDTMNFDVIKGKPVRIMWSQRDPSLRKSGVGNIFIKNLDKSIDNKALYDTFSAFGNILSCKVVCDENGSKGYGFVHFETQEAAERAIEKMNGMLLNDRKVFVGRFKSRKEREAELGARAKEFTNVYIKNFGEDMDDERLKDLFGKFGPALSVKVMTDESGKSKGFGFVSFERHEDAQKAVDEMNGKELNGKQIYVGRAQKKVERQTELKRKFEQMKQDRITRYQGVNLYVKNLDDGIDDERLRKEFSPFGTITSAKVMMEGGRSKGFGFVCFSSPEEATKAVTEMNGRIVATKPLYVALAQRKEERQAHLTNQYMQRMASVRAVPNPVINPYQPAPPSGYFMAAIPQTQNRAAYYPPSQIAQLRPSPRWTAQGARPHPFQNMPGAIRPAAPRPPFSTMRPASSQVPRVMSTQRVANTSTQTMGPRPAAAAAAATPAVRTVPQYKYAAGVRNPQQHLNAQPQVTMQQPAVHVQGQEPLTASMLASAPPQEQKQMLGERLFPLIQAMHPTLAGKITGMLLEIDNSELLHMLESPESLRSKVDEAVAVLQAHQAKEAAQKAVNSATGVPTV

COc1cccc(N2CCN(CC(=O)NC(C)c3ccccc3)CC2)c1 (centres undefined)
AC50 [1]: 2.02 µM (active)

COc1ccc(CCNC(=O)c2nnn(CC(=O)Nc3c(C)cc(C)cc3C)c2N)cc1OC
EC50 (cells [2]): > 350 µM (not active) | EC50 (cells [3]): > 350 µM (not active)

COC(=O)C1C(=O)N2CCCSC2=C(C#N)C1c1cccs1 (centres undefined)
EC50 (cells [2]): > 350 µM (not active) | EC50 (cells [3]): > 350 µM (not active)

c1ccc(COC2CCCN(Cc3nc(-c4cccs4)no3)C2)nc1 (centres undefined)
IC50 [4]: > 66 µM (inactive) | IC50 [5]: > 66 µM (inactive)

Nc1ncc(-c2ccccc2)c(-c2ccc(O)cc2O)n1
AC50 [1]: 3.66 µM (active)

COc1ccc(-n2ccnc(SCC(=O)NC3CCCC3)c2=O)cc1
IC50 [4]: > 66 µM (inactive) | IC50 [5]: > 66 µM (inactive)

Cc1ccc(N2C(=O)CC(Sc3ccccc3C(=O)O)C2=O)c([N+](=O)[O-])c1 (centres undefined)
IC50 [4]: > 66 µM (inactive) | IC50 [5]: > 66 µM (inactive)

COc1cccc(/C=N/NC(=O)c2nc(-c3ccccc3)cc(-c3ccccc3)n2)c1O
EC50 [6]: > 150 µM (inactive) | EC50 (cells [2]): 12.8 µM (active) | EC50 [7]: 1.54 µM (active) | EC50 (cells [3]): 86.6 µM (active)

COc1ccc(C2=CC(c3ccc(F)cc3)n3nnnc3N2)cc1 (centres undefined)
IC50 [4]: > 66 µM (inactive) | IC50 [5]: > 66 µM (inactive)

COc1ccc(Sc2nc(-c3ccccc3)ncc2OC)cc1
EC50 [8]: 18.3 µM (active) | EC50 [9]: > 120 µM (not active) | EC50 [10]: 16 µM (active)

CCN(CCNC(=O)Cn1cc2c(n1)CCCC2)c1ccccc1
AC50 [1]: 2.46 µM (active)

CC(C)c1ccc(S(=O)(=O)Nc2ccc(O)c(Sc3nc[nH]n3)c2)cc1
AC50 [1]: 1.49 µM (active)

Cc1[nH]c(=O)[nH]c(=O)c1N(CCF)CCCl [FLUORODOPAN]
GI50 (P388/ADR): 330 µM (inactive) | GI50 (SN12K1): 249 µM (inactive)

Cc1noc(C)c1COc1ccc(C(=O)NNC(=O)c2ccccc2F)cc1
IC50 [11]: > 80 µM (inactive)

COc1ccc(S(=O)(=O)N(C)C[C@@H]2Oc3ccc(NC(=O)Nc4ccc5c(c4)OCO5)cc3C(=O)N([C@H](C)CO)C[C@@H]2C)cc1
AC50 [12]: 2.3 µM (active) | AC50 [13]: 3.09 µM (active)

CCN1CCN(/C=N/c2nc3c(s2)CCCC3)CC1
EC50 [9]: 8.93 µM (active) | EC50 [14]: < 0.16 µM (active) | EC50 [10]: 7.71 µM (active) | AC50 [15]: 6.42 µM (active)

COc1cccc(-n2nc(-c3ccnn3-c3ccccc3)c(=O)n(C)c2=O)c1
EC50 [8]: 25.3 µM (active) | EC50 [9]: > 120 µM (not active) | EC50 [10]: > 120 µM (not active)

CSc1nsc(SCC(=O)NCc2ccccc2)n1
IC50 [4]: > 66 µM (inactive) | IC50 [5]: > 66 µM (inactive)

O=C1CCC(C(=O)N2CCCC(Nc3ccc(F)cc3)C2)=NN1 (centres undefined)
AC50 [1]: 24.8 µM (active)

CN(C)Cc1ccccc1Sc1ccc(O)cc1O
AC50 [1]: 1.78 µM (active)

Cn1ncc2c(N3CCN(c4ccc(Cl)c(Cl)c4)CC3)ncnc21
IC50 [11]: > 80 µM (inactive) | AC50 (INS1): 2.55 µM (active)

COC(=O)c1[nH]c2ccccc2c1/C=C1\C(=O)NC(=O)N(c2cc(OC)ccc2OC)C1=O
EC50 (cells [2]): > 350 µM (not active) | EC50 (cells [3]): 73.1 µM (active)

Cc1ccc(NC(=O)C2CCN(S(=O)(=O)c3c(C)noc3/C=C/c3ccco3)CC2)nc1
AC50 [15]: 5.56 µM (active)

Cc1cccc(C)c1NC(=O)CN1C(=O)S/C(=C\c2cccn2-c2cccc(C(=O)O)c2)C1=O
EC50 [16]: > 300 µM (not active) | EC50 [17]: 60 µM (active) | IC50 [18]: 6.71 µM (active)

CCc1ccc(C2C(=O)c3ccccc3C2=O)cc1
EC50 (cells [2]): > 350 µM (not active) | EC50 (cells [3]): 30.8 µM (active)

COc1ccc(N2CCN(c3ccc(N4C(=O)CC(C)C4=O)cc3[N+](=O)[O-])CC2)cc1 (centres undefined)
EC50 (cells [2]): > 350 µM (not active) | EC50 (cells [3]): 41.1 µM (active)

COc1ccc(NCC(=O)N/N=C/C2CCCCC2)cc1
AC50 [1]: 4.57 µM (active)

CCO[C@H]1OC(C(=O)Nc2ccccc2)=C[C@@H](c2ccc(Br)cc2)[C@@H]1CCCO
CC50 [19]: 17.6 µM (active) | EC50 [8]: > 120 µM (not active) | EC50 [9]: > 120 µM (not active) | EC50 [10]: > 120 µM (not active)

COC(=O)c1cc2c(C)c(C)c3ccccn3c-2c1C(=O)OC
IC50 (H9c2): 47.9 µM (inactive) | IC50 [4]: > 66 µM (inactive) | IC50 [5]: > 66 µM (inactive)
